Experimental data taken from PubChem BioAssay (NCI).
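Protocol summary: plate cells (96-well), add compound at 5 concentrations, incubate 48 h, interpolate endpoints linearly. Abbreviation: GI50, concentration required for 50% inhibition of growth. The concentration for full growth arrest is given as TGI.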

Columns and labels:
Test in all cases: NCI-60 cell line screen, 48 h
NCI-H460 lung = test system: NCI-H460 lung
CCRF-CEM leukemia = test system: CCRF-CEM leukemia
U251 CNS = test system: U251 CNS
M14 melanoma = test system: M14 melanoma
SK-MEL-5 melanoma = test system: SK-MEL-5 melanoma
RXF 393 renal = test system: RXF 393 renal
SR leukemia = test system: SR leukemia
LOX IMVI melanoma = test system: LOX IMVI melanoma
RPMI-8226 leukemia = test system: RPMI-8226 leukemia
HCT-116 colon = test system: HCT-116 colon
ACHN renal = test system: ACHN renal
TK-10 renal = test system: TK-10 renal
NCI-H23 lung = test system: NCI-H23 lung
HOP-62 NSCLC = test system: HOP-62 NSCLC
HS 578T breast = test system: HS 578T breast
DU-145 prostate = test system: DU-145 prostate
EKVX NSCLC = test system: EKVX NSCLC
HOP-92 NSCLC = test system: HOP-92 NSCLC
SF-295 CNS = test system: SF-295 CNS
SF-539 CNS = test system: SF-539 CNS
HL-60(TB) leukemia = test system: HL-60(TB) leukemia
SW-620 colon = test system: SW-620 colon
HCC-2998 colon = test system: HCC-2998 colon
K-562 leukemia = test system: K-562 leukemia
UO-31 renal = test system: UO-31 renal
MALME-3M melanoma = test system: MALME-3M melanoma
SK-OV-3 ovarian = test system: SK-OV-3 ovarian
IGROV1 ovarian = test system: IGROV1 ovarian
UACC-257 melanoma = test system: UACC-257 melanoma
NCI-H522 lung = test system: NCI-H522 lung
MOLT-4 leukemia = test system: MOLT-4 leukemia
MDA-MB-468 breast = test system: MDA-MB-468 breast
OVCAR-5 ovarian = test system: OVCAR-5 ovarian
SK-MEL-28 melanoma = test system: SK-MEL-28 melanoma
COLO 205 colon = test system: COLO 205 colon
SF-268 CNS = test system: SF-268 CNS
MCF7 breast = test system: MCF7 breast
A498 renal = test system: A498 renal
UACC-62 melanoma = test system: UACC-62 melanoma
OVCAR-8 ovarian = test system: OVCAR-8 ovarian
HCT-15 colon = test system: HCT-15 colon
SN12C renal = test system: SN12C renal
PC-3 prostate = test system: PC-3 prostate
A549 NSCLC = test system: A549 NSCLC
786-0 renal = test system: 786-0 renal
SK-MEL-2 melanoma = test system: SK-MEL-2 melanoma
OVCAR-4 ovarian = test system: OVCAR-4 ovarian
SNB-75 CNS = test system: SNB-75 CNS
OVCAR-3 ovarian = test system: OVCAR-3 ovarian
HT29 colon = test system: HT29 colon
SNB-19 CNS = test system: SNB-19 CNS
BT-549 breast = test system: BT-549 breast
CAKI-1 renal = test system: CAKI-1 renal
KM12 colon = test system: KM12 colon
MDA-MB-231 breast = test system: MDA-MB-231 breast
T-47D breast = test system: T-47D breast
NCI-H226 lung = test system: NCI-H226 lung
MDA-MB-435 = test system: MDA-MB-435

`CNC(=O)c1cccc(NC(=O)c2ccc3c(c2)nnn3/C(C#N)=C/c2ccccn2)c1` showed a GI50 (NCI-H460 lung) of 15.7 µM, a TGI (NCI-H460 lung) of 34.1 µM and a GI50 (CCRF-CEM leukemia) of 3.71 µM. For the same compound, the TGI (CCRF-CEM leukemia) was 38.4 µM, the GI50 (U251 CNS) was 15.3 µM and the TGI (U251 CNS) was 32.2 µM. For the same compound, the GI50 (M14 melanoma) was 10.9 µM, the TGI (M14 melanoma) was 23 µM and the GI50 (SK-MEL-5 melanoma) was 14.1 µM. For the same compound, the TGI (SK-MEL-5 melanoma) was 27.4 µM, the GI50 (RXF 393 renal) was 4.88 µM and the TGI (RXF 393 renal) was 16.9 µM. The GI50 (SR leukemia) was 2.76 µM, the TGI (SR leukemia) was greater than 100 µM and the GI50 (LOX IMVI melanoma) was 1.86 µM. For the same compound, the TGI (LOX IMVI melanoma) was 3.9 µM, the GI50 (RPMI-8226 leukemia) was 10.4 µM and the TGI (RPMI-8226 leukemia) was 52.1 µM. The GI50 (HCT-116 colon) was 2.74 µM, the TGI (HCT-116 colon) was 10.1 µM and the GI50 (ACHN renal) was 13.7 µM. For the same compound, the TGI (ACHN renal) was 26.8 µM, the GI50 (TK-10 renal) was 14 µM and the TGI (TK-10 renal) was 27.6 µM. For the same compound, the GI50 (NCI-H23 lung) was 13.4 µM, the TGI (NCI-H23 lung) was 26.8 µM and the GI50 (HOP-62 NSCLC) was 17.9 µM. For the same compound, the TGI (HOP-62 NSCLC) was 41.2 µM, the GI50 (HS 578T breast) was 12.6 µM and the TGI (HS 578T breast) was 38.1 µM. For the same compound, the GI50 (DU-145 prostate) was 15.3 µM, the TGI (DU-145 prostate) was 29 µM and the GI50 (EKVX NSCLC) was 15.8 µM. The TGI (EKVX NSCLC) was 30.2 µM, the GI50 (HOP-92 NSCLC) was 11.6 µM and the TGI (HOP-92 NSCLC) was 27.3 µM. For the same compound, the GI50 (SF-295 CNS) was 19.7 µM, the TGI (SF-295 CNS) was 39.5 µM and the GI50 (SF-539 CNS) was 13.8 µM. For the same compound, the TGI (SF-539 CNS) was 26.9 µM, the GI50 (HL-60(TB) leukemia) was 3.21 µM and the TGI (HL-60(TB) leukemia) was 24.2 µM. The GI50 (SW-620 colon) was 1.87 µM, the TGI (SW-620 colon) was 3.75 µM and the GI50 (HCC-2998 colon) was 16.1 µM. The TGI (HCC-2998 colon) was 29.8 µM, the GI50 (K-562 leukemia) was 3.11 µM and the TGI (K-562 leukemia) was greater than 100 µM. It also gave a GI50 (UO-31 renal) of 12.7 µM, a TGI (UO-31 renal) of 25.3 µM and a GI50 (MALME-3M melanoma) of 1.85 µM. For the same compound, the TGI (MALME-3M melanoma) was 3.94 µM, the GI50 (SK-OV-3 ovarian) was 30.2 µM and the TGI (SK-OV-3 ovarian) was greater than 100 µM. The GI50 (IGROV1 ovarian) was 13.6 µM, the TGI (IGROV1 ovarian) was 27.5 µM and the GI50 (UACC-257 melanoma) was 8.21 µM. It also gave a TGI (UACC-257 melanoma) of 21.2 µM, a GI50 (NCI-H522 lung) of 1.61 µM and a TGI (NCI-H522 lung) of 3.14 µM. It also gave a GI50 (MOLT-4 leukemia) of 3.51 µM, a TGI (MOLT-4 leukemia) of 39 µM and a GI50 (MDA-MB-468 breast) of 1.71 µM. For the same compound, the TGI (MDA-MB-468 breast) was 3.43 µM, the GI50 (OVCAR-5 ovarian) was 15.7 µM and the TGI (OVCAR-5 ovarian) was 29.3 µM. It also gave a GI50 (SK-MEL-28 melanoma) of 1.95 µM, a TGI (SK-MEL-28 melanoma) of 4.33 µM and a GI50 (COLO 205 colon) of 2.63 µM. The TGI (COLO 205 colon) was 6.7 µM, the GI50 (SF-268 CNS) was 17.9 µM and the TGI (SF-268 CNS) was 41.4 µM. It also gave a GI50 (MCF7 breast) of 3.46 µM, a TGI (MCF7 breast) of 15.6 µM and a GI50 (A498 renal) of 18.6 µM. For the same compound, the TGI (A498 renal) was 41.1 µM, the GI50 (UACC-62 melanoma) was 14 µM and the TGI (UACC-62 melanoma) was 27.7 µM. For the same compound, the GI50 (OVCAR-8 ovarian) was 15.3 µM, the TGI (OVCAR-8 ovarian) was 29.8 µM and the GI50 (HCT-15 colon) was 10.8 µM. It also gave a TGI (HCT-15 colon) of 23.6 µM, a GI50 (SN12C renal) of 16.4 µM and a TGI (SN12C renal) of 30.3 µM. It also gave a GI50 (PC-3 prostate) of 19.2 µM, a TGI (PC-3 prostate) of 48 µM and a GI50 (A549 NSCLC) of 22.1 µM. It also gave a TGI (A549 NSCLC) of 60 µM, a GI50 (786-0 renal) of 2.38 µM and a TGI (786-0 renal) of 7.7 µM. The GI50 (SK-MEL-2 melanoma) was 12.8 µM, the TGI (SK-MEL-2 melanoma) was 25.9 µM and the GI50 (OVCAR-4 ovarian) was 15.7 µM. For the same compound, the TGI (OVCAR-4 ovarian) was 29.4 µM, the GI50 (SNB-75 CNS) was 17.7 µM and the TGI (SNB-75 CNS) was 92.4 µM. The GI50 (OVCAR-3 ovarian) was 3.11 µM, the TGI (OVCAR-3 ovarian) was 10.2 µM and the GI50 (HT29 colon) was 10.5 µM. The TGI (HT29 colon) was 31.1 µM, the GI50 (SNB-19 CNS) was 18.6 µM and the TGI (SNB-19 CNS) was 38.9 µM. For the same compound, the GI50 (BT-549 breast) was 1.95 µM, the TGI (BT-549 breast) was 5.59 µM and the GI50 (CAKI-1 renal) was 6.37 µM. It also gave a TGI (CAKI-1 renal) of 19.9 µM, a GI50 (KM12 colon) of 16.5 µM and a TGI (KM12 colon) of 46.9 µM. For the same compound, the GI50 (MDA-MB-231 breast) was 11.8 µM, the TGI (MDA-MB-231 breast) was 24.7 µM and the GI50 (T-47D breast) was 2.31 µM. The TGI (T-47D breast) was 7.38 µM, the GI50 (NCI-H226 lung) was 14.3 µM and the TGI (NCI-H226 lung) was 29.2 µM. For the same compound, the GI50 (MDA-MB-435) was 7.69 µM and the TGI (MDA-MB-435) was 21.4 µM.
